{"source": "patent US11760979B2", "about": "“Isolated liver cancer stem cell and method for drug screening thereof” (LICENSE BIOTECHNOLOGY Co., Ltd., priority 2020, dated 2023)", "key": {"TW-1 cell line [1]": {"test_system": "TW-1 cell line", "assay": "In vitro drug screening test (cell survival rate)", "type": "cell-based, rat", "method": "(§1) The purpose of the method of drug screening is to evaluate the inhibitory ability of the active ingredients of currently used anticancer drugs against the growth, recurrence, or metastasis of TW-1 cell line, and HTC cell line was used as control group. The active ingredient of anticancer drug be used in the embodiment was Sorafenib.\nTW-1 cell line and HTC cell line were seeded in 96-well plate with 2×10^5 cells/well, 1 μM, 5 μM, 10 μM, 20 μM and 40 μM of Sorafenib were respectfully used for treating cells once the cells were attached, and the negative control group cells were treated with PBS."}, "TW-1 cell line [2]": {"test_system": "TW-1 cell line", "assay": "In vivo drug screening test, TW-1 cell line transplanted subcutaneously", "set-up": "species or system BALB/cAnN.Cg-Foxnl^nu/CrlNarl nude mice", "conditions": "nude mice", "method": "as §1, with “BALB/cAnN.Cg-Foxnl^nu/CrlNarl nude mice were” for “HTC cell line was”, “the animal model.” for “control group.”\nBALB/cAnN.Cg-Foxnl^nu/CrlNarl nude mice were grouped into 3 groups, control group (Control), low-dose Sorafenib group (10 mg/kg body weight (BD)) and high-dose Sorafenib group (50 mg/kg body weight (BD)), 5 mice in each group.\nTransplanting of TW-1 cell line into BALB/cAnN.Cg-Foxnl^nu/CrlNarl nude mice were processed with 5×10^5 cells by subcutaneous injection for evaluating the effect of anticancer drugs against TW-1 cell line.\nAfter the tumor grew to appropriate size (100-150 mm^3) that was able to be measured at the TW-1 cell line transplanted position, the mice were treated with Sorafenib (Sorafenib groups) or PBS (control group) once per three days, and tumor generation of the mice were measured for 30 days the tumor volume of mice were recorded once per five days."}}, "note": "Entries after “also recorded” stand apart in the source; their conditions may differ."}
{"smiles": "CNC(=O)c1cc(Oc2ccc(NC(=O)Nc3ccc(Cl)c(C(F)(F)F)c3)cc2)ccn1", "note": "[Sorafenib]", "values": [{"measurement": "cell growth", "setting": "TW-1 cell line [1]; 40 μM Sorafenib, 24 and 48 hours post-treatment", "value": "the cell growth was decreased; also recorded: had the ability to inhibit growth of TW-1 cell line, but TW-1 cell line was not killed"}, {"measurement": "sensitivity to Sorafenib (cell survival rate), TW-1 cell line compared with HTC cell line", "setting": "TW-1 cell line [1]; concentration lower than 10 μM, after treatment for 24 hours, HTC cell line as control", "value": "higher sensitivity"}, {"measurement": "drug tolerance of TW-1 cell line compared with HTC cell lines", "setting": "TW-1 cell line [1]; high concentration (up to 40 μM), more obvious after 48 hours post-treatment", "value": "much higher drug tolerance"}, {"measurement": "tumor volume of high-dose Sorafenib group vs low-dose Sorafenib group", "setting": "TW-1 cell line [2]; 50 mg/kg vs 10 mg/kg body weight, once per three days, 30 days", "value": "significantly higher than that in low-dose Sorafenib group mice"}, {"measurement": "tumor volume of Sorafenib treating groups vs control group", "setting": "TW-1 cell line [2]; 10 and 50 mg/kg body weight, once per three days, measured for 30 days", "value": "significantly higher than that in control group"}, {"measurement": "metastasis of TW-1 cell line to lung", "setting": "TW-1 cell line [2]; high-dose Sorafenib (50 mg/kg body weight), drug dependent", "value": "high-dose Sorafenib induced high metastasis"}]}
